# From patent US11691951B2 (Curtana Pharmaceuticals, Inc., priority 2015, dated 2023)
# Tested on: GBM8 cells (human glioblastoma neurosphere cell culture)
# Assay: GBM8 viability assay (Cell Titer Glo luminescence, 3 days)
# Type: cell-based
# Conditions: 72 h, 3 days incubation
# Procedure: Example 283: GBM4 and GBM8 Viability Assay
# Cell culture medium was prepared from a NSA proliferation kit (Neurocult) and NeuroCult supplements (Stemcell Tech Cat. #05751) and treated with 20 μL of 10 μg/mL rh EGF, 10 μL of 10 μg/mL rh bFGF and 10 μL of 0.2% Heparin. In this medium, human glioblastoma cells were cultured in ultra-low attachment tissue culture flasks until 1×10^6 cells ml was achieved (GBM4 and GBM8 are distinct neurosphere cell cultures derived from these human patient tissues). GBM4 and GBM8 cells were dissociated and 10 mL of media containing 4000 human glioblastoma cells per 90 uL were transferred to an ultra-low binding 96-well plate and incubated at 37° C. overnight. On the following day, 10 μL of a 1% DMSO solution of test compound in assay medium was added to wells containing the cell suspension and the mixture incubated at 37° C. for 3 days. At this time, the plate was removed from the incubator and allowed to reach room temperature. After about 30 minutes, 50 μL of Cell Titer Glo solution was added to each well and the plate shaken for 1 minute at low speed. After 10 minutes luminescence was recorded using a Tecan Safire2 reader.
# Reduction in luminescence compared to DMSO only control wells was used to determine the percentage inhibition of cell growth. IC50s were calculated using the % inhibition of luminescence for serial dilutions of compounds fitted to a 4-parameter fit within the Prism (San Diego) curve fitting program.
row,IC50 [nM],Compound
1,< 1000,Cc1cc(NCCN)nc(NC(=O)Nc2cccc(OC(F)(F)F)c2)n1 [Compound 178]
2,< 1000,"Cc1cc(NCCCN(C)C)nc(NC(=O)Nc2cccc(C(F)(F)F)c2)n1 [Compound 180, 1-(4-((3-(dimethylamino)propyl)amino)-6-methylpyrimidin-2-yl)-3-(3-(trifluoromethyl)phenyl)urea]"
3,< 1000,Cc1cc(NCCCCO)nc(NC(=O)Nc2cccc(C(F)(F)F)c2)n1 [Compound 181]
4,< 1000,Cc1cc(NCCN)nc(NC(=O)Nc2cccc(C(F)(F)F)c2)n1 [Compound 182]
5,1000 to 10000,Cc1cc(NCCOCCO)nc(NC(=O)Nc2cccc(C(F)(F)F)c2)n1 [Compound 183]
6,< 1000,Cc1cc(NCCO)nc(NC(=O)Nc2cccc(C(F)(F)F)c2)n1 [Compound 184]
7,< 1000,Cc1cc(NCC(C)O)nc(NC(=O)Nc2cccc(C(F)(F)F)c2)n1 (centres unmarked) [Compound 185]
8,< 1000,Cc1cc(NCC(O)CO)nc(NC(=O)Nc2cccc(C(F)(F)F)c2)n1 (centres unmarked) [Compound 187]
9,< 1000,Cc1cc(NCC(F)(F)CO)nc(NC(=O)Nc2cccc(C(F)(F)F)c2)n1 [Compound 188]
10,1000 to 10000,Cc1cc(NCCN(C)C)nc(NC(=O)Nc2cccc(C(F)(F)F)c2)n1 [Compound 189]
11,< 1000,Cc1cc(NCCCCN)nc(NC(=O)Nc2cccc(C(F)(F)F)c2)n1 [Compound 190]
12,< 1000,Cc1cc(NCCCCN(C)C)nc(NC(=O)Nc2cccc(C(F)(F)F)c2)n1 [Compound 191]
13,< 1000,Cc1cc(NCCCN)nc(NC(=O)Nc2cccc(C(F)(F)F)c2)n1 [Compound 192]
14,< 1000,"CNCCCNc1cc(C)nc(NC(=O)Nc2cccc(C(F)(F)F)c2)n1 [Compound 194, 1-(4-methyl-6-((3-(methylamino)propyl)amino)pyrimidin-2-yl)-3-(3-(trifluoromethyl)phenyl)urea]"
15,< 1000,"Cc1cc(NCCCN(C)C)nc(NC(=O)Nc2ccc(C(F)(F)F)cc2)n1 [Compound 196, 1-(4-((3-(dimethylamino)propyl)amino)-6-methylpyrimidin-2-yl)-3-(4-(trifluoromethyl)phenyl)urea]"
16,< 1000,Cc1cc(NCCCCN)nc(NC(=O)Nc2ccc(C(F)(F)F)cc2)n1 [Compound 197]
17,< 1000,Cc1cc(NCC(C)O)nc(NC(=O)Nc2ccc(C(F)(F)F)cc2)n1 (centres unmarked) [Compound 198]
18,< 1000,Cc1cc(NCCOCCO)nc(NC(=O)Nc2ccc(C(F)(F)F)cc2)n1 [Compound 199]
19,< 1000,Cc1cc(NCCCCO)nc(NC(=O)Nc2ccc(C(F)(F)F)cc2)n1 [Compound 200]
20,< 1000,Cc1cc(NCCO)nc(NC(=O)Nc2ccc(C(F)(F)F)cc2)n1 [Compound 201]

row,IC50 [nM],Compound
1,< 1000,CCCNc1cc(C)nc(NC(=O)Nc2ccc(C(F)(F)F)cc2)n1 [Compound 202]
2,< 1000,Cc1cc(NCCN(C)C)nc(NC(=O)Nc2ccc(C(F)(F)F)cc2)n1 [Compound 203]
3,1000 to 10000,Cc1cc(NCCCN)nc(NC(=O)Nc2ccc(C(F)(F)F)cc2)n1 [Compound 204]
4,1000 to 10000,CNCCCN(C)c1cc(C)nc(NC(=O)Nc2ccc(C(F)(F)F)cc2)n1 [Compound 205]
5,1000 to 10000,Cc1cc(NCC2CCCN(C)C2)nc(NC(=O)Nc2ccc(C(F)(F)F)cc2)n1 (centres unmarked) [Compound 206]
6,< 1000,Cc1cc(NCCN)nc(NC(=O)Nc2ccc(C(F)(F)F)cc2)n1 [Compound 207]
7,< 1000,"Cc1cccc(NC(=O)Nc2nc(C)cc(NCCCN(C)C)n2)c1 [Compound 209, 1-(4-((3-(dimethylamino)propyl)amino)-6-methylpyrimidin-2-yl)-3-(m-tolyl)urea]"
8,< 1000,Cc1cccc(NC(=O)Nc2nc(C)cc(NCCCN)n2)c1 [Compound 210]
9,< 1000,Cc1cccc(NC(=O)Nc2nc(C)cc(NCCO)n2)c1 [Compound 211]
10,< 1000,Cc1cccc(NC(=O)Nc2nc(C)cc(NCCCCO)n2)c1 [Compound 212]
11,< 1000,Cc1cccc(NC(=O)Nc2nc(C)cc(NCCN)n2)c1 [Compound 213]
12,1000 to 10000,Cc1cccc(NC(=O)Nc2nc(C)cc(NCC3CCCN(C)C3)n2)c1 (centres unmarked) [Compound 214]
13,< 1000,Cc1cccc(NC(=O)Nc2nc(C)cc(NCCN(C)C)n2)c1 [Compound 215]
14,< 1000,Cc1cccc(NC(=O)Nc2nc(C)cc(NCCCCN)n2)c1 [Compound 216]
15,< 1000,Cc1cccc(NC(=O)Nc2nc(C)cc(NCCOCCO)n2)c1 [Compound 217]
16,< 1000,CCCNc1cc(C)nc(NC(=O)Nc2cccc(C)c2)n1 [Compound 218]
17,< 1000,Cc1cccc(NC(=O)Nc2nc(C)cc(NCC(C)O)n2)c1 (centres unmarked) [Compound 219]
18,1000 to 10000,COC(=O)CCNc1cc(C)nc(NC(=O)Nc2cccc(C)c2)n1 [Compound 220]
19,1000 to 10000,Cc1cccc(NC(=O)Nc2nc(C)cc(NCCCc3ccccn3)n2)c1 [Compound 221]
20,< 1000,Cc1cccc(NC(=O)Nc2nc(C)cc(NCC(O)CO)n2)c1 (centres unmarked) [Compound 223]

row,IC50 [nM],Compound
1,< 1000,CCNc1cc(C)nc(NC(=O)Nc2cccc(C)c2)n1 [Compound 224]
2,< 1000,Cc1cccc(NC(=O)Nc2nc(C)cc(NCCCc3cnc[nH]3)n2)c1 [Compound 226]
3,< 1000,Cc1cccc(NC(=O)Nc2nc(C)cc(NCCCCN(C)C)n2)c1 [Compound 227]
4,1000 to 10000,"CNCCNc1cc(C)nc(NC(=O)Nc2cccc(C)c2)n1 [Compound 229, 1-(4-methyl-6-((2-(methylamino)ethyl)amino)pyrimidin-2-yl)-3-(m-tolyl)urea]"
5,< 1000,CNCCCNc1cc(C)nc(NC(=O)Nc2cccc(C)c2)n1 [Compound 230]
6,1000 to 10000,CNCCCCNc1cc(C)nc(NC(=O)Nc2cccc(C)c2)n1 [Compound 231]
7,< 1000,Cc1cccc(NC(=O)Nc2nc(C)cc(NCC3CCCNC3)n2)c1 (centres unmarked) [Compound 232]
8,< 1000,"Cc1ccc(NC(=O)Nc2nc(C)cc(NCCCN(C)C)n2)cc1 [Compound 234, 1-(4-((3-(dimethylamino)propyl)amino)-6-methylpyrimidin-2-yl)-3-(p-tolyl)urea]"
9,< 1000,Cc1ccc(NC(=O)Nc2nc(C)cc(NCCCN)n2)cc1 [Compound 236]
10,< 1000,Cc1ccc(NC(=O)Nc2nc(C)cc(NCCN)n2)cc1 [Compound 237]
11,1000 to 10000,Cc1ccc(NC(=O)Nc2nc(C)cc(NCCOCCO)n2)cc1 [Compound 238]
12,< 1000,Cc1ccc(NC(=O)Nc2nc(C)cc(NCCCCO)n2)cc1 [Compound 239]
13,< 1000,Cc1ccc(NC(=O)Nc2nc(C)cc(NCCO)n2)cc1 [Compound 240]
14,< 1000,Cc1ccc(NC(=O)Nc2nc(C)cc(NCCCCN)n2)cc1 [Compound 241]
15,1000 to 10000,Cc1ccc(NC(=O)Nc2nc(C)cc(NCCN(C)C)n2)cc1 [Compound 242]
16,< 1000,Cc1ccc(NC(=O)Nc2nc(C)cc(NCCCc3cnc[nH]3)n2)cc1 [Compound 243]
17,1000 to 10000,Cc1ccc(NC(=O)Nc2nc(C)cc(NCCCCN(C)C)n2)cc1 [Compound 245]
18,< 1000,Cc1ccc(NC(=O)Nc2nc(C)cc(NCC(O)CO)n2)cc1 (centres unmarked) [Compound 246]
19,1000 to 10000,"CNCCCNc1cc(C)nc(NC(=O)Nc2ccc(C)cc2)n1 [Compound 248, 1-(4-methyl-6-((3-(methylamino)propyl)amino)pyrimidin-2-yl)-3-(p-tolyl)urea]"
